Laboratory results: patent US7638140B2, “Adhesive mixture for transdermal delivery of highly plasticizing drugs” (priority 1997, dated 2009)
Structures can show the parent of a compound that is named as a salt.

Assays:
pH = type: physicochemical
[1] = free base form of the drug named as HCl salt; cited from earlier work

With `C#CCN(C)[C@H](C)Cc1ccccc1` [Selegiline free base, selegiline] the solubility in water (Solubility in water) was “only sparingly soluble in water”.

In the case of `CCN(CC)CC` [Triethylamine], the “calculated pH” value (pH) is reported as “approximately 13.7” and the “measured pH” value (pH) is reported as “approximately 11.7”.

In the case of `Clc1cccc(Cl)c1N=C1NCCN1` [clonidine-HCl], the “pKb of the free base form” value [1] is listed as 7.

In the case of `C#CCN(C)[C@H](C)Cc1ccccc1` [selegiline-HCl], the solubility in water (Solubility in water) is reported as “readily soluble in water”.

For phenylpropranolol-HCl, the “pH of the free base form” value (pH; free base form) was “approximately 13”.
